{"source": "paper PMC10135964", "about": "“One Scaffold, Two Conformations: The Ring-Flip of the Messenger InsP8 Occurs under Cytosolic Conditions” (Biomolecules, 2023)", "experiment": "1H,13C BIRD-HMQC NMR quantification of axial vs. equatorial conformer", "format": "physicochemical", "details": "50 µM, 130 mM KCl, 10 mM NaCl, 4 °C", "experimental": "Samples for HMQC-NMR studies contained 50 µM ^13C6-labeled InsPs (InsP6/5PP-InsP5/InsP8), 2 mM bis-tris-propane, 130 mM KCl, 10 mM NaCl and 0/50/250 µM MgCl2 in D2O.\nBIRD-HMQC NMR spectra were recorded at 277 K and 600 MHz (^1H frequency) on a Bruker AV-III NMR spectrometer (Bruker Biospin, Rheinstetten, Germany) using cryogenically cooled 5 mm QCI-triple resonance probe equipped with one-axis self-shielded gradients. The spectrometer was operated using topspin 3.5 pl6 software. Instrument temperature was calibrated against […] according to Findeisen et al.. Acquisition parameters were SW(^13C): 60–90 ppm, NS: 128, TD(^13C): 64.\nBIRD-HMQC spectra were recorded at 277 K as described above, with samples containing 200 µM InsPs, 130 mM KCl, 10 mM NaCl, 2mM BTP in D2O. pH was set to pH* 9.5 for InsP6, pH* 8.8 for 5PP-InsP5 and pH* 8.5 for InsP8 (pH = 0.929 × pH* + 0.42 [35]). NOESY-HMQC spectra of the same samples were subsequently recorded using mixing times of 80 ms for InsP6 and 5PP-InsP5 and 200 ms for InsP8. Conformational exchange on the time-scale of the experiment created cross-peaks between corresponding peaks in different conformations, which allowed us to assign each peak of the equatorial conformer to its axial counterpart.", "note": "Entries after “also recorded” stand apart in the source; their conditions may differ.", "data": [{"molecule": "O=P(O)(O)O[C@@H]1[C@@H](OP(=O)(O)O)[C@H](OP(=O)(O)OP(=O)(O)O)[C@@H](OP(=O)(O)O)[C@H](OP(=O)(O)OP(=O)(O)O)[C@@H]1OP(=O)(O)O", "note": "[InsP8, 1,5(PP)2-InsP4]", "values": [{"measurement": "proportion in axial conformation", "setting": "pH* 7.5 (=pH 7.4), 1 equiv. Mg2+", "value": "about 10%"}, {"measurement": "proportion in axial conformation", "setting": "pH* 7.5, 5 equiv. Mg2+", "value": "about half; also recorded: almost equally distributed between its axial and equatorial forms"}, {"measurement": "proportion in axial conformation", "setting": "pH* 8.5, without divalent cations", "value": "about half"}]}]}
